In article PMC10778198, “First-in-Human Dose-Escalation Study of the Novel Oral Depsipeptide Class I-Targeting HDAC Inhibitor Bocodepsin (OKI-179) in Patients with Advanced Solid Tumors” (Cancers, 2023):

System: patients with advanced solid tumors
Assay: phase I dose escalation: safety, DLT, MTD, RP2D (CTCAE v. 5)
Type: in vivo
From the text: Subsequent dosing cohorts were enrolled using a standard 3 + 3 design.
If any patient in any cohort of three patients developed a DLT during cycle 1, an additional three patients were recruited to expand the cohort to up to six evaluable patients. If two or more patients in any expanded cohort developed a DLT, this dose was considered non-tolerated, and dose escalation was discontinued. The MTD was defined as the highest dose level for which no more than one of six patients experienced a DLT.
Patients were continuously evaluated for adverse events throughout the study using the Common Terminology Criteria of Adverse Events (CTCAE v. 5). The patients underwent a clinical history and physical examination, an ECOG PS, a complete blood count (CBCs), chemistry, coagulation studies, urinalysis, a serum pregnancy test (as applicable), a triplicate ECG, an ophthalmology examination, and baseline tumor assessment at screening. During cycle 1, weekly history and physical examination, CBC, chemistry, coagulation parameters, urinalysis, and triplicate ECGs were performed; in subsequent cycles, weekly labs were limited to a CBC. Repeat ophthalmology examinations were performed at cycle 3, day 1, and at the end of treatment. Repeat tumor assessment was performed every 2 cycles (6 weeks) in accordance with RECIST 1.1.

[1] = 4:3 intermittent dosing schedule, all grades

Compound: CC(C)[C@H](N)C(=O)SCC/C=C/[C@@H]1CC(=O)NCc2nc(cs2)C(=O)NC(C)(C)C(=O)N[C@@H](C(C)C)C(=O)O1 [OKI-179, Bocodepsin]
- TEAE: Hypokalaemia (4:3, 350 mg (n = 3), G3): 0 n (%)
- TEAE: Muscular weakness (4:3, 350 mg (n = 3), G3): 0 n (%)
- TEAE: Nasal congestion (4:3, 350 mg (n = 3), G3): 0 n (%)
- TEAE: Nausea (4:3, 350 mg (n = 3), G3): 0 n (%)
- TEAE: Platelet count decreased (4:3, 350 mg (n = 3), G3): 0 n (%)
- TEAE: Proteinuria (4:3, 350 mg (n = 3), G3): 0 n (%)
- TEAE: Pyrexia (4:3, 350 mg (n = 3), G3): 0 n (%)
- TEAE: Vomiting (4:3, 350 mg (n = 3), G3): 0 n (%)
- TEAE: Weight decreased (4:3, 350 mg (n = 3), G3): 0 n (%)
- TEAE: Anemia (4:3, 450 mg (n = 6), G1): 0 n (%)
- TEAE: Back pain (4:3, 450 mg (n = 6), G1): 2 (33) n (%)
- TEAE: Cough (4:3, 450 mg (n = 6), G1): 1 (17) n (%)
- TEAE: Decreased appetite (4:3, 450 mg (n = 6), G1): 1 (17) n (%)
- TEAE: Diarrhea (4:3, 450 mg (n = 6), G1): 0 n (%)
- TEAE: Dyspnea (4:3, 450 mg (n = 6), G1): 0 n (%)
- TEAE: ECG QT prolonged (4:3, 450 mg (n = 6), G1): 1 (17) n (%)
- TEAE: Fatigue (4:3, 450 mg (n = 6), G1): 0 n (%)
- TEAE: Headache (4:3, 450 mg (n = 6), G1): 1 (17) n (%)
- TEAE: Hypokalaemia (4:3, 450 mg (n = 6), G1): 0 n (%)
- TEAE: Muscular weakness (4:3, 450 mg (n = 6), G1): 0 n (%)
- TEAE: Nausea (4:3, 450 mg (n = 6), G1): 2 (33) n (%)
- TEAE: Platelet count decreased (4:3, 450 mg (n = 6), G1): 1 (17) n (%)
- TEAE: Proteinuria (4:3, 450 mg (n = 6), G1): 0 n (%)
- TEAE: Pyrexia (4:3, 450 mg (n = 6), G1): 1 (17) n (%)
- TEAE: Vomiting (4:3, 450 mg (n = 6), G1): 1 (17) n (%)
- TEAE: Weight decreased (4:3, 450 mg (n = 6), G1): 1 (17) n (%)
- TEAE: Anemia (4:3, 450 mg (n = 6), G2): 0 n (%)
- TEAE: Back pain (4:3, 450 mg (n = 6), G2): 0 n (%)
- TEAE: Cough (4:3, 450 mg (n = 6), G2): 0 n (%)
- TEAE: Decreased appetite (4:3, 450 mg (n = 6), G2): 1 (17) n (%)
- TEAE: Diarrhea (4:3, 450 mg (n = 6), G2): 0 n (%)
- TEAE: Dyspnea (4:3, 450 mg (n = 6), G2): 0 n (%)
- TEAE: ECG QT prolonged (4:3, 450 mg (n = 6), G2): 0 n (%)
- TEAE: Fatigue (4:3, 450 mg (n = 6), G2): 0 n (%)
- TEAE: Headache (4:3, 450 mg (n = 6), G2): 0 n (%)
- TEAE: Hypokalaemia (4:3, 450 mg (n = 6), G2): 1 (17) n (%)
- TEAE: Muscular weakness (4:3, 450 mg (n = 6), G2): 0 n (%)
- TEAE: Nasal congestion (4:3, 450 mg (n = 6), G2): 0 n (%)
- TEAE: Nausea (4:3, 450 mg (n = 6), G2): 3 (50) n (%)
- TEAE: Platelet count decreased (4:3, 450 mg (n = 6), G2): 2 (33) n (%)
- TEAE: Proteinuria (4:3, 450 mg (n = 6), G2): 3 (50) n (%)
- TEAE: Pyrexia (4:3, 450 mg (n = 6), G2): 0 n (%)
- TEAE: Vomiting (4:3, 450 mg (n = 6), G2): 0 n (%)
- TEAE: Weight decreased (4:3, 450 mg (n = 6), G2): 0 n (%)
- TEAE: Anemia (4:3, 450 mg (n = 6), G3): 2 (33) n (%)
- TEAE: Back pain (4:3, 450 mg (n = 6), G3): 0 n (%)
- TEAE: Cough (4:3, 450 mg (n = 6), G3): 0 n (%)
- TEAE: Decreased appetite (4:3, 450 mg (n = 6), G3): 0 n (%)
- TEAE: Diarrhea (4:3, 450 mg (n = 6), G3): 0 n (%)
- TEAE: Dyspnea (4:3, 450 mg (n = 6), G3): 0 n (%)
- TEAE: ECG QT prolonged (4:3, 450 mg (n = 6), G3): 1 (17) n (%)
- TEAE: Fatigue (4:3, 450 mg (n = 6), G3): 1 (17) n (%)
- TEAE: Headache (4:3, 450 mg (n = 6), G3): 0 n (%)
- TEAE: Hypokalaemia (4:3, 450 mg (n = 6), G3): 0 n (%)
- TEAE: Muscular weakness (4:3, 450 mg (n = 6), G3): 1 (17) n (%)
- TEAE: Nasal congestion (4:3, 450 mg (n = 6), G3): 0 n (%)
- TEAE: Nausea (4:3, 450 mg (n = 6), G3): 0 n (%)
- TEAE: Platelet count decreased (4:3, 450 mg (n = 6), G3): 0 n (%)
- TEAE: Proteinuria (4:3, 450 mg (n = 6), G3): 0 n (%)
- TEAE: Pyrexia (4:3, 450 mg (n = 6), G3): 0 n (%)
- TEAE: Vomiting (4:3, 450 mg (n = 6), G3): 0 n (%)
- TEAE: Weight decreased (4:3, 450 mg (n = 6), G3): 0 n (%)
- TEAE: Anemia [1]: 40%
- TEAE: Diarrhea [1]: 25%
- TEAE: Fatigue [1]: 40%
- TEAE: Nausea [1]: 63%
- TEAE: Vomiting [1]: 30%
- TEAE: anorexia [1]: 35%
- TEAE: decreased platelet count [1]: 30%
- grade 3 TEAE: anemia (4:3 schedule): 25%
- grade 3 TEAE: fatigue (4:3 schedule): 15%
- grade 3 TEAE: prolonged QT (4:3 schedule): 15%
- grade 1 or 2 nausea (4:3 schedule, 450 mg): 83%
- TEAE: Abdominal pain (5:2, 300 mg (N=6), All grades): 1 (17) N (%)
- TEAE: Anemia (5:2, 300 mg (N=6), All grades): 2 (33) N (%)
